Measurements published in PMC12446476 (Nature Communications, 2025).
Where two headings read alike, the source gives them in different places.

System: N. gonorrhoeae
Assay: MIC determination, Etest
Type: cell-based, Neisseria gonorrhoeae
Settings: for MIC: Neisseria gonorrhoeae
Excerpt: The 2024 WHO N. gonorrhoeae reference strains were used for quality control. Only whole MIC doubling dilutions are reported. Clinical breakpoints or the epidemiological cutoff (ECOFF, to indicate azithromycin resistance) from EUCAST (v14.0, https://www.eucast.org/clinical_breakpoints) were used to classify isolates as antimicrobial susceptible or resistant. […] Two times the standard inoculum defined by CLSI was used to establish consistent growth in untreated control samples for some strains. In vitro time-kill assays were performed according to CLSI guidelines[65] using Columbia Broth (BD Difco) supplemented with 1% IsoVitaleX Enrichment (BD). Viable bacterial counts were generated by plating 10-fold serially diluted samples on GC agar plates containing 1% IsoVitaleX Enrichment (BD).

CC[C@H]1OC(=O)[C@H](C)[C@@H](O[C@H]2C[C@@](C)(OC)[C@@H](O)[C@H](C)O2)[C@H](C)[C@@H](O[C@@H]2O[C@H](C)C[C@H](N(C)C)[C@H]2O)[C@](C)(O)C[C@@H](C)CN(C)[C@H](C)[C@@H](O)[C@]1(C)O [Azithromycin]
0.064 µg/mL: MIC (comparator antibiotics, clinical N. gonorrhoeae isolate 5, Sweden 2023, read-out: Minimum inhibitory concentration) | MIC (comparator antibiotics, clinical N. gonorrhoeae isolate 6, Sweden 2023, read-out: Minimum inhibitory concentration) | MIC (comparator antibiotics, clinical N. gonorrhoeae isolate 8, Sweden 2023, read-out: Minimum inhibitory concentration) | MIC (comparator antibiotics, clinical N. gonorrhoeae isolate 13, Sweden 2023, read-out: Minimum inhibitory concentration) | MIC (comparator antibiotics, clinical N. gonorrhoeae isolate 14, Sweden 2023, read-out: Minimum inhibitory concentration) | MIC (comparator antibiotics, clinical N. gonorrhoeae isolate 25, Sweden 2023, read-out: Minimum inhibitory concentration) | MIC (comparator antibiotics, clinical N. gonorrhoeae isolate 31, Sweden 2023, read-out: Minimum inhibitory concentration) | MIC (comparator antibiotics, clinical N. gonorrhoeae isolate 32, Sweden 2023, read-out: Minimum inhibitory concentration) | MIC (comparator antibiotics, clinical N. gonorrhoeae isolate 40, Sweden 2023, read-out: Minimum inhibitory concentration) | MIC (comparator antibiotics, clinical N. gonorrhoeae isolate 45, Sweden 2023, read-out: Minimum inhibitory concentration) | MIC (comparator antibiotics, clinical N. gonorrhoeae isolate 51, Sweden 2023, read-out: Minimum inhibitory concentration) | MIC (comparator antibiotics, clinical N. gonorrhoeae isolate 57, Sweden 2023, read-out: Minimum inhibitory concentration) | MIC (comparator antibiotics, clinical N. gonorrhoeae isolate 59, Sweden 2023, read-out: Minimum inhibitory concentration) | MIC (comparator antibiotics, clinical N. gonorrhoeae isolate 65, Sweden 2023, read-out: Minimum inhibitory concentration) | MIC (comparator antibiotics, clinical N. gonorrhoeae isolate 68, Sweden 2023, read-out: Minimum inhibitory concentration) | MIC (comparator antibiotics, clinical N. gonorrhoeae isolate 73, Sweden 2023, read-out: Minimum inhibitory concentration) | MIC (comparator antibiotics, clinical N. gonorrhoeae isolate 77, Sweden 2023, read-out: Minimum inhibitory concentration) | MIC (comparator antibiotics, clinical N. gonorrhoeae isolate 79, Sweden 2023, read-out: Minimum inhibitory concentration) | MIC (comparator antibiotics, clinical N. gonorrhoeae isolate 98, Sweden 2023, read-out: Minimum inhibitory concentration) | MIC (comparator antibiotics, clinical N. gonorrhoeae isolate 99, Sweden 2023, read-out: Minimum inhibitory concentration) | MIC (comparator antibiotics, clinical N. gonorrhoeae isolate 100, Sweden 2023, read-out: Minimum inhibitory concentration)
1 µg/mL: MIC (WHO L, Etest, read-out: MIC) | MIC (WHO Y, Etest, read-out: MIC) | MIC (WHO Z, Etest, read-out: MIC)
> 256 µg/mL: MIC (WHO V, Etest, read-out: MIC)
0.125 µg/mL: MIC (comparator antibiotics, clinical N. gonorrhoeae isolate 2, Sweden 2023, read-out: Minimum inhibitory concentration) | MIC (comparator antibiotics, clinical N. gonorrhoeae isolate 7, Sweden 2023, read-out: Minimum inhibitory concentration) | MIC (comparator antibiotics, clinical N. gonorrhoeae isolate 10, Sweden 2023, read-out: Minimum inhibitory concentration) | MIC (comparator antibiotics, clinical N. gonorrhoeae isolate 12, Sweden 2023, read-out: Minimum inhibitory concentration) | MIC (comparator antibiotics, clinical N. gonorrhoeae isolate 22, Sweden 2023, read-out: Minimum inhibitory concentration) | MIC (comparator antibiotics, clinical N. gonorrhoeae isolate 23, Sweden 2023, read-out: Minimum inhibitory concentration) | MIC (comparator antibiotics, clinical N. gonorrhoeae isolate 27, Sweden 2023, read-out: Minimum inhibitory concentration) | MIC (comparator antibiotics, clinical N. gonorrhoeae isolate 30, Sweden 2023, read-out: Minimum inhibitory concentration) | MIC (comparator antibiotics, clinical N. gonorrhoeae isolate 33, Sweden 2023, read-out: Minimum inhibitory concentration) | MIC (comparator antibiotics, clinical N. gonorrhoeae isolate 34, Sweden 2023, read-out: Minimum inhibitory concentration) | MIC (comparator antibiotics, clinical N. gonorrhoeae isolate 37, Sweden 2023, read-out: Minimum inhibitory concentration) | MIC (comparator antibiotics, clinical N. gonorrhoeae isolate 39, Sweden 2023, read-out: Minimum inhibitory concentration) | MIC (comparator antibiotics, clinical N. gonorrhoeae isolate 47, Sweden 2023, read-out: Minimum inhibitory concentration) | MIC (comparator antibiotics, clinical N. gonorrhoeae isolate 48, Sweden 2023, read-out: Minimum inhibitory concentration) | MIC (comparator antibiotics, clinical N. gonorrhoeae isolate 53, Sweden 2023, read-out: Minimum inhibitory concentration) | MIC (comparator antibiotics, clinical N. gonorrhoeae isolate 58, Sweden 2023, read-out: Minimum inhibitory concentration) | MIC (comparator antibiotics, clinical N. gonorrhoeae isolate 61, Sweden 2023, read-out: Minimum inhibitory concentration) | MIC (comparator antibiotics, clinical N. gonorrhoeae isolate 70, Sweden 2023, read-out: Minimum inhibitory concentration) | MIC (comparator antibiotics, clinical N. gonorrhoeae isolate 72, Sweden 2023, read-out: Minimum inhibitory concentration) | MIC (comparator antibiotics, clinical N. gonorrhoeae isolate 76, Sweden 2023, read-out: Minimum inhibitory concentration) | MIC (comparator antibiotics, clinical N. gonorrhoeae isolate 80, Sweden 2023, read-out: Minimum inhibitory concentration) | MIC (comparator antibiotics, clinical N. gonorrhoeae isolate 85, Sweden 2023, read-out: Minimum inhibitory concentration) | MIC (comparator antibiotics, clinical N. gonorrhoeae isolate 86, Sweden 2023, read-out: Minimum inhibitory concentration) | MIC (comparator antibiotics, clinical N. gonorrhoeae isolate 87, Sweden 2023, read-out: Minimum inhibitory concentration) | MIC (comparator antibiotics, clinical N. gonorrhoeae isolate 90, Sweden 2023, read-out: Minimum inhibitory concentration)
S: AMR phenotype (susceptibility category, EUCAST) (WHO F) | AMR phenotype (susceptibility category, EUCAST) (WHO H) | AMR phenotype (susceptibility category, EUCAST) (WHO K) | AMR phenotype (susceptibility category, EUCAST) (WHO L) | AMR phenotype (susceptibility category, EUCAST) (WHO M) | AMR phenotype (susceptibility category, EUCAST) (WHO O) | AMR phenotype (susceptibility category, EUCAST) (WHO R) | AMR phenotype (susceptibility category, EUCAST) (WHO X) | AMR phenotype (susceptibility category, EUCAST) (WHO Y) | AMR phenotype (susceptibility category, EUCAST) (WHO Z)
0.5 µg/mL: MIC (WHO K, Etest, read-out: MIC) | MIC (WHO M, Etest, read-out: MIC) | MIC (WHO O, Etest, read-out: MIC) | MIC (WHO R, Etest, read-out: MIC) | MIC (WHO X, Etest, read-out: MIC) | MIC (comparator antibiotics, clinical N. gonorrhoeae isolate 4, Sweden 2023, read-out: Minimum inhibitory concentration) | MIC (comparator antibiotics, clinical N. gonorrhoeae isolate 20, Sweden 2023, read-out: Minimum inhibitory concentration) | MIC (comparator antibiotics, clinical N. gonorrhoeae isolate 21, Sweden 2023, read-out: Minimum inhibitory concentration) | MIC (comparator antibiotics, clinical N. gonorrhoeae isolate 36, Sweden 2023, read-out: Minimum inhibitory concentration) | MIC (comparator antibiotics, clinical N. gonorrhoeae isolate 43, Sweden 2023, read-out: Minimum inhibitory concentration) | MIC (comparator antibiotics, clinical N. gonorrhoeae isolate 44, Sweden 2023, read-out: Minimum inhibitory concentration) | MIC (comparator antibiotics, clinical N. gonorrhoeae isolate 49, Sweden 2023, read-out: Minimum inhibitory concentration) | MIC (comparator antibiotics, clinical N. gonorrhoeae isolate 54, Sweden 2023, read-out: Minimum inhibitory concentration) | MIC (comparator antibiotics, clinical N. gonorrhoeae isolate 55, Sweden 2023, read-out: Minimum inhibitory concentration) | MIC (comparator antibiotics, clinical N. gonorrhoeae isolate 60, Sweden 2023, read-out: Minimum inhibitory concentration) | MIC (comparator antibiotics, clinical N. gonorrhoeae isolate 64, Sweden 2023, read-out: Minimum inhibitory concentration) | MIC (comparator antibiotics, clinical N. gonorrhoeae isolate 74, Sweden 2023, read-out: Minimum inhibitory concentration) | MIC (comparator antibiotics, clinical N. gonorrhoeae isolate 75, Sweden 2023, read-out: Minimum inhibitory concentration) | MIC (comparator antibiotics, clinical N. gonorrhoeae isolate 84, Sweden 2023, read-out: Minimum inhibitory concentration) | MIC (comparator antibiotics, clinical N. gonorrhoeae isolate 88, Sweden 2023, read-out: Minimum inhibitory concentration) | MIC (comparator antibiotics, clinical N. gonorrhoeae isolate 92, Sweden 2023, read-out: Minimum inhibitory concentration) | MIC (comparator antibiotics, clinical N. gonorrhoeae isolate 95, Sweden 2023, read-out: Minimum inhibitory concentration)
2%: percent of isolates resistant (100 contemporary clinical N. gonorrhoeae isolates, EUCAST)
4 µg/mL: MIC (WHO P, Etest, read-out: MIC) | MIC (WHO U, Etest, read-out: MIC)
R: AMR phenotype (susceptibility category, EUCAST) (WHO P) | AMR phenotype (susceptibility category, EUCAST) (WHO Q) | AMR phenotype (susceptibility category, EUCAST) (WHO S2) | AMR phenotype (susceptibility category, EUCAST) (WHO U) | AMR phenotype (susceptibility category, EUCAST) (WHO V)
0.032 µg/mL: MIC (comparator antibiotics, clinical N. gonorrhoeae isolate 18, Sweden 2023, read-out: Minimum inhibitory concentration) | MIC (comparator antibiotics, clinical N. gonorrhoeae isolate 38, Sweden 2023, read-out: Minimum inhibitory concentration) | MIC (comparator antibiotics, clinical N. gonorrhoeae isolate 42, Sweden 2023, read-out: Minimum inhibitory concentration) | MIC (comparator antibiotics, clinical N. gonorrhoeae isolate 46, Sweden 2023, read-out: Minimum inhibitory concentration) | MIC (comparator antibiotics, clinical N. gonorrhoeae isolate 83, Sweden 2023, read-out: Minimum inhibitory concentration) | MIC (comparator antibiotics, clinical N. gonorrhoeae isolate 91, Sweden 2023, read-out: Minimum inhibitory concentration) | MIC (comparator antibiotics, clinical N. gonorrhoeae isolate 93, Sweden 2023, read-out: Minimum inhibitory concentration) | MIC (comparator antibiotics, clinical N. gonorrhoeae isolate 94, Sweden 2023, read-out: Minimum inhibitory concentration)
< 256 µg/mL: MIC (WHO Q, Etest, read-out: MIC)
2 µg/mL: MIC (WHO S2, Etest, read-out: MIC) | MIC (comparator antibiotics, clinical N. gonorrhoeae isolate 71, Sweden 2023, read-out: Minimum inhibitory concentration) | MIC (comparator antibiotics, clinical N. gonorrhoeae isolate 82, Sweden 2023, read-out: Minimum inhibitory concentration)
0.25 µg/mL: MIC (WHO F, Etest, read-out: MIC) | MIC (WHO H, Etest, read-out: MIC) | MIC (comparator antibiotics, clinical N. gonorrhoeae isolate 1, Sweden 2023, read-out: Minimum inhibitory concentration) | MIC (comparator antibiotics, clinical N. gonorrhoeae isolate 3, Sweden 2023, read-out: Minimum inhibitory concentration) | MIC (comparator antibiotics, clinical N. gonorrhoeae isolate 9, Sweden 2023, read-out: Minimum inhibitory concentration) | MIC (comparator antibiotics, clinical N. gonorrhoeae isolate 11, Sweden 2023, read-out: Minimum inhibitory concentration) | MIC (comparator antibiotics, clinical N. gonorrhoeae isolate 15, Sweden 2023, read-out: Minimum inhibitory concentration) | MIC (comparator antibiotics, clinical N. gonorrhoeae isolate 16, Sweden 2023, read-out: Minimum inhibitory concentration) | MIC (comparator antibiotics, clinical N. gonorrhoeae isolate 17, Sweden 2023, read-out: Minimum inhibitory concentration) | MIC (comparator antibiotics, clinical N. gonorrhoeae isolate 19, Sweden 2023, read-out: Minimum inhibitory concentration) | MIC (comparator antibiotics, clinical N. gonorrhoeae isolate 24, Sweden 2023, read-out: Minimum inhibitory concentration) | MIC (comparator antibiotics, clinical N. gonorrhoeae isolate 26, Sweden 2023, read-out: Minimum inhibitory concentration) | MIC (comparator antibiotics, clinical N. gonorrhoeae isolate 29, Sweden 2023, read-out: Minimum inhibitory concentration) | MIC (comparator antibiotics, clinical N. gonorrhoeae isolate 35, Sweden 2023, read-out: Minimum inhibitory concentration) | MIC (comparator antibiotics, clinical N. gonorrhoeae isolate 41, Sweden 2023, read-out: Minimum inhibitory concentration) | MIC (comparator antibiotics, clinical N. gonorrhoeae isolate 50, Sweden 2023, read-out: Minimum inhibitory concentration) | MIC (comparator antibiotics, clinical N. gonorrhoeae isolate 52, Sweden 2023, read-out: Minimum inhibitory concentration) | MIC (comparator antibiotics, clinical N. gonorrhoeae isolate 56, Sweden 2023, read-out: Minimum inhibitory concentration) | MIC (comparator antibiotics, clinical N. gonorrhoeae isolate 63, Sweden 2023, read-out: Minimum inhibitory concentration) | MIC (comparator antibiotics, clinical N. gonorrhoeae isolate 66, Sweden 2023, read-out: Minimum inhibitory concentration) | MIC (comparator antibiotics, clinical N. gonorrhoeae isolate 67, Sweden 2023, read-out: Minimum inhibitory concentration) | MIC (comparator antibiotics, clinical N. gonorrhoeae isolate 69, Sweden 2023, read-out: Minimum inhibitory concentration) | MIC (comparator antibiotics, clinical N. gonorrhoeae isolate 78, Sweden 2023, read-out: Minimum inhibitory concentration) | MIC (comparator antibiotics, clinical N. gonorrhoeae isolate 81, Sweden 2023, read-out: Minimum inhibitory concentration) | MIC (comparator antibiotics, clinical N. gonorrhoeae isolate 89, Sweden 2023, read-out: Minimum inhibitory concentration) | MIC (comparator antibiotics, clinical N. gonorrhoeae isolate 96, Sweden 2023, read-out: Minimum inhibitory concentration) | MIC (comparator antibiotics, clinical N. gonorrhoeae isolate 97, Sweden 2023, read-out: Minimum inhibitory concentration)
0.016 µg/mL: MIC (comparator antibiotics, clinical N. gonorrhoeae isolate 28, Sweden 2023, read-out: Minimum inhibitory concentration) | MIC (comparator antibiotics, clinical N. gonorrhoeae isolate 62, Sweden 2023, read-out: Minimum inhibitory concentration)
